Reference: patent publication US8921358B2, “Apoptosis signal-regulating kinase 1 inhibitors” (Takeda Pharmaceutical Company Limited, priority 2008, dated 2014)
Where a name gives a salt, the structure may show the parent alone.

Target: T1, human ASK1 (Homo sapiens, UniProt Q99683)
T1 construct: a 2.2 kb DNA fragment containing an ASK1 gene was recovered from the gel; made in house; host or cells: Sf-21 insect cells, recombinant baculovirus (pFASTBAC1, Bac-to-Bac)
T1 sequence (Q99683 649-1374 limits assumed): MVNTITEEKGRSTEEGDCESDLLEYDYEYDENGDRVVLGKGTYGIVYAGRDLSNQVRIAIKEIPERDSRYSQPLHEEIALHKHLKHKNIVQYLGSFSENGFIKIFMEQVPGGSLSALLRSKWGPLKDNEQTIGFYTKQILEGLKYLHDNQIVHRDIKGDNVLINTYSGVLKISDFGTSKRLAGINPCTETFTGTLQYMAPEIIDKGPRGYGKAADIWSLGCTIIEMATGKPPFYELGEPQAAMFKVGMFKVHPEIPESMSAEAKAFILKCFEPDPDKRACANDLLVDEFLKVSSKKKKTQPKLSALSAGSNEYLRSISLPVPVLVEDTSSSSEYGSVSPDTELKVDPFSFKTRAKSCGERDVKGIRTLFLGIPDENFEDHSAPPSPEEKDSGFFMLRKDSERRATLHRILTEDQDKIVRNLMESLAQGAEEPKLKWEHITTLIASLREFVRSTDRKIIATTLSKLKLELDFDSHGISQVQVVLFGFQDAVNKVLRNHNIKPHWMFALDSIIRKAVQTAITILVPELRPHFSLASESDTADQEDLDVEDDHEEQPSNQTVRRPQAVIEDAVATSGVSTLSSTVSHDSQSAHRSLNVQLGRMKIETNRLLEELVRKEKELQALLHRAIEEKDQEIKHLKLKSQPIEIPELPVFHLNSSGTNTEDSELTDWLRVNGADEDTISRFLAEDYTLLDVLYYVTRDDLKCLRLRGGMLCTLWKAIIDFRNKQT
Assay: Scintillation assay measuring inhibition of ASK1 phosphorylation of myelin basic protein
Assay type: biochemical
Settings: active ASK1 protein 30 ng, myelin basic protein 1 μg, [γ-32P]ATP, room temperature 30 min; values given as ranges; read-out: Enzyme Activity IC50
Experimental: Cloning of cDNA encoding human ASK1 was conducted by PCR using primers, 5′-[…] AGAGAAGGGGA-3′ (SEQ ID NO: 1) and 5′-[…]-3′ (SEQ ID NO: 2), from human heart cDNA library (Becton, Dickinson and Company). The PCR product was subjected to agarose gel (1%) electrophoresis, a 2.2 kb DNA fragment containing an ASK1 gene was recovered from the gel, and then digested with restriction enzymes, NotI and SalI, and inserted into a plasmid pFASTBAC1 (Invitrogen) to prepare a plasmid pFB-ASK1. The insert was verified by sequencing. Recombinant baculovirus was prepared according to the procedure of the Bac-to-Bac baculovirus expression system (Invitrogen).
Sf-21 cells were seeded to achieve 1×10^6 cells/mL in 100 mL of Sf-900 II SFM medium (Invitrogen) which contains 10% fetal calf serum and then cultured at 27° C. for 24 hrs. To express ASK1 in cells, 0.15 mL of the recombinant baculovirus virus stock was added to cells, and the then cultured for 60 hrs. The cells were separated from the culture solution by centrifugation at 3000 rpm for 10 min and washed once with PBS. The cells were suspended in 10 mL of lysis buffer (25 mM HEPES (pH 7.5), 1% Triton X, 130 mM NaCl, 1 mM EDTA, 1 mM DTT, 25 mM β-glycerophosphate, Protease inhibitor complete (Roche), 1 mM sodium orthovanadate) and ruptured by four times of treatment with a homogenizer (POLYTRON) at 20000 rpm for 30 seconds. Active ASK1 protein was purified from a supernatant obtained by centrifugal separation at 40000 rpm for 45 min using anti-FLAG M2 Affinity Gel (Sigma).
The test compounds (2.5 μl) dissolved in DMSO were added to wells containing 37.5 μl of the reaction solution (25 mM HEPES (pH 7.5), 10 mM magnesium acetate, 1 mM DTT) including 30 ng of active ASK1 protein and 1 μg of myelin basic protein (Wako), and incubated at room temperature for 5 min. To start the reaction, 10 μL of ATP solution (2.5 μM ATP, 0.1 μCi [γ-^32P]ATP) was added to wells. After incubating at room temperature for 30 min, the reaction was terminated by adding 50 μl of 20% TCA solution. The reaction solution was incubated at 4° C. for 30 min and an acid-insoluble fraction was transferred onto a GF/C filter (Packard) with Cell Harvester (Packard), and washed with 250 mM phosphoric acid. After drying at 45° C. for 60 min., 40 μL of Microscint 0 (Packard) was added and the radioactivity was measured with TopCount (Packard). The concentrations (IC50 value) of the test compounds necessary for 50% inhibition of kinase activity were calculated by PRISM 3.0 (Graphpad Software).
The enzyme activities of selected compounds of the present invention against ASK1 were determined using the assay disclosed in Example A and B. The resulted pIC50 values are reported in Table 1.

Structure (SMILES)	IC50
CC(C)(O)c1ccc(C(=O)Nc2cc(NC3CC3)n3nccc3n2)cc1 [Compound 88, N-(7-(cyclopropylamino)pyrazolo[1,5-a]pyrimidin-5-yl)-4-(2-hydroxypropan-2-yl)benzamide]	100 to 1000 nM
CC(C)(O)c1ccc(C(=O)Nc2cc(N3CCc4nc[nH]c(=O)c4C3)n3nccc3n2)cc1 [Compound 89, 4-(2-hydroxypropan-2-yl)-N-(7-(4-oxo-3,4,7,8-tetrahydropyrido[4,3-d]pyrimidin-6(5H)-yl)pyrazolo[1,5-a]pyrimidin-5-yl)benzamide]	< 100 nM
CC(C)(O)c1ccc(C(=O)Nc2cc(N3CCN(S(C)(=O)=O)CC3)n3nccc3n2)cc1 [Compound 90, 4-(2-hydroxypropan-2-yl)-N-(7-(4-(methylsulfonyl)piperazin-1-yl)pyrazolo[1,5-a]pyrimidin-5-yl)benzamide]	100 to 1000 nM
CC(C)(O)c1ccc(C(=O)Nc2cc(N3CCn4cnnc4C3)n3nccc3n2)cc1 [Compound 91, N-(7-(5,6-dihydro-[1,2,4]triazolo[4,3-a]pyrazin-7(8H)-yl)pyrazolo[1,5-a]pyrimidin-5-yl)-4-(2-hydroxypropan-2-yl)benzamide]	> 1000 nM
CC(C)(O)c1ccc(C(=O)Nc2cc(N3CCC[C@H]3C(N)=O)n3nccc3n2)cc1 [Compound 92, (S)-1-(5-(4-(2-hydroxypropan-2-yl)benzamido)pyrazolo[1,5-a]pyrimidin-7-yl)pyrrolidine-2-carboxamide]	> 1000 nM
CC(C)(O)c1ccc(C(=O)Nc2cc(N3CCNC(=O)CC3)n3nccc3n2)cc1 [Compound 93, 4-(2-hydroxypropan-2-yl)-N-(7-(5-oxo-1,4-diazepan-1-yl)pyrazolo[1,5-a]pyrimidin-5-yl)benzamide]	100 to 1000 nM
Cc1cc2nc(NC(=O)c3ccc(C(C)(C)CO)cc3)cc(N3CCC[C@H]3CO)n2n1 [Compound 95, (S)-4-(1-hydroxy-2-methylpropan-2-yl)-N-(7-(2-(hydroxymethyl)pyrrolidin-1-yl)-2-methylpyrazolo[1,5-a]pyrimidin-5-yl)benzamide]	100 to 1000 nM
Cc1cc2nc(NC(=O)c3ccc(C(C)(C)CO)cc3)cc(N3CC(O)C3)n2n1 [Compound 97, 4-(1-hydroxy-2-methylpropan-2-yl)-N-(7-(3-hydroxyazetidin-1-yl)-2-methylpyrazolo[1,5-a]pyrimidin-5-yl)benzamide]	100 to 1000 nM
CC(C)(C)c1ccc(C(=O)Nc2cc(N3CCCC(C(N)=O)C3)n3nccc3n2)cc1 (stereo not shown) [Compound 104, 1-(5-(4-tert-butylbenzamido)pyrazolo[1,5-a]pyrimidin-7-yl)piperidine-3-carboxamide]	< 100 nM
CC(C)(C)c1ccc(C(=O)Nc2cc(N3CCCCC3CCO)n3nccc3n2)cc1 (stereo not shown) [Compound 105, 4-tert-butyl-N-(7-(2-(2-hydroxyethyl)piperidin-1-yl)pyrazolo[1,5-a]pyrimidin-5-yl)benzamide]	< 100 nM
CC(C)(C)c1ccc(C(=O)Nc2cc(N3CCC(O)CC3)n3nccc3n2)cc1 [Compound 112, 4-tert-butyl-N-(7-(4-hydroxypiperidin-1-yl)pyrazolo[1,5-a]pyrimidin-5-yl)benzamide]	< 100 nM
CC(C)(C)c1ccc(C(=O)Nc2cc(N3CCCC(O)C3)n3nccc3n2)cc1 (stereo not shown) [Compound 113, 4-tert-butyl-N-(7-(3-hydroxypiperidin-1-yl)pyrazolo[1,5-a]pyrimidin-5-yl)benzamide]	< 100 nM
CN(C)c1cc(NC(=O)c2ccc(C(C)(C)C)cc2)nc2ccnn12 [Compound 125, 4-tert-butyl-N-(7-(dimethylamino)pyrazolo[1,5-a]pyrimidin-5-yl)benzamide]	< 100 nM
Cc1cc2nc(NC(=O)c3ccc(C(C)(C)CO)cc3)cc(N(C)CCc3ccccc3)n2n1 [Compound 127, 4-(1-hydroxy-2-methylpropan-2-yl)-N-(2-methyl-7-(methyl(phenethyl)amino)pyrazolo[1,5-a]pyrimidin-5-yl)benzamide]	> 1000 nM
CC(C)(C)c1ccc(C(=O)Nc2cc(NC3CC3)n3nccc3n2)cc1 [Compound 128, 4-tert-butyl-N-[7-(cyclopropylamino)pyrazolo[1,5-a]pyrimidin-5-yl]benzamide]	< 100 nM
Cc1cc2nc(N)cc(-c3cccc(CO)c3)n2n1 [Compound 173, (3-(5-amino-2-methylpyrazolo[1,5-a]pyrimidin-7-yl)phenyl)methanol]	> 1000 nM
Cc1ccc(-c2cc(N)nc3ccnn23)cc1 [Compound 174, 7-p-tolylpyrazolo[1,5-a]pyrimidin-5-amine]	> 1000 nM
Nc1cc(-c2cccs2)n2nccc2n1 [Compound 175, 7-(thiophen-2-yl) pyrazolo[1,5-a]pyrimidin-5-amine]	> 1000 nM
Nc1cc(-c2cccc(CO)c2)n2nccc2n1 [Compound 178, (3-(5-aminopyrazolo[1,5-a]pyrimidin-7-yl)phenyl)methanol]	> 1000 nM
Cc1cc2nc(NC(=O)c3ccc(C(C)(C)O)cc3)cc(-c3ccccc3)n2n1 [Compound 202, 4-(2-hydroxypropan-2-yl)-N-(2-methyl-7-phenylpyrazolo[1,5-a]pyrimidin-5-yl)benzamide]	< 100 nM
Cc1cc2nc(NC(=O)c3ccc(C(C)(C)O)cc3)cc(N3CC[C@@H](O)C3)n2n1 [Compound 203, (R)-4-(2-hydroxypropan-2-yl)-N-(7-(3-hydroxypyrrolidin-1-yl)-2-methylpyrazolo[1,5-a]pyrimidin-5-yl)benzamide]	< 100 nM
Cc1cc2nc(NC(=O)c3ccc(C(C)(C)O)nc3)cc(-c3ccccc3)n2n1 [Compound 315, 6-(2-hydroxypropan-2-yl)-N-(2-methyl-7-phenylpyrazolo[1,5-a]pyrimidin-5-yl)nicotinamide]	100 to 1000 nM
COc1ccc(-c2cc(NC(=O)c3ccc(C(C)(C)O)nc3)nc3cc(C)nn23)cc1 [Compound 338, 6-(2-hydroxypropan-2-yl)-N-(7-(4-methoxyphenyl)-2-methylpyrazolo[1,5-a]pyrimidin-5-yl)nicotinamide, trifluoroacetate salt]	< 100 nM
Cc1cc2nc(NC(=O)[C@@H]3C[C@H]3c3ccccc3)cc(-c3ccccc3)n2n1 [Compound 347, (1R,2R)—N-(2-Methyl-7-phenylpyrazolo[1,5-a]pyrimidin-5-yl)-2-phenylcyclopropanecarboxamide]	< 100 nM
CC(=O)NC1CCN(c2cc(NC(=O)[C@@H]3C[C@H]3c3ccccc3)nc3cc(C)nn23)CC1 [Compound 356, (1R,2R)—N-(7-(4-acetamidopiperidin-1-yl)-2-methylpyrazolo[1,5-a]pyrimidin-5-yl)-2-phenylcyclopropanecarboxamide]	< 100 nM
